The text below walks through data of patent US20230031406A1, “COMPOUNDS AND COMPOSITIONS FOR TREATING CONDITIONS ASSOCIATED WITH NLRP ACTIVITY” (Novartis AG, priority 2018, published 2023).

pIC50: −log10 of the molar value. Where two headings read alike, the source gives them in different places.

For this experiment, the system named is PMA-differentiated THP-1 cells. The experiment is described as follows: IL-1β production in PMA-differentiated THP-1 cells stimulated with gramicidin (hTHP-1 assay containing 2% fetal bovine serum; Procedures 1 and 2). It counts as cell-based, human. To be noted: 2% fetal bovine serum. An outline of the steps: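 Human monocytic THP-1 cells, matured overnight with PMA at 20 ng/ml, are seeded in low-serum (2% FBS) RPMI. Test compounds, at final concentrations from 100 down to 0.0017 μM, precede gramicidin (5 μM, 2 h) by one hour. Released IL-1β is then determined by HTRF.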

The mark [1] stands for this setting: Homo sapiens, THP-1, Table B3, hTHP-1 assay, numeric values, read-out: IC50.
Setting [2] is: Homo sapiens, THP-1, Table B2, class symbols, read-out: hTHP-1 IC50.
Where [3] appears, read: Table B1, class symbols, read-out: Average IC50 of compounds in hTHP-1 assay: hTHP-1 IC50.
Where [4] appears, read: Homo sapiens, THP-1, Table B2, numeric bounds, read-out: hTHP-1 IC50.
The mark [5] stands for this setting: Table B2, class symbols, read-out: hTHP-1 IC50.
Where [6] appears, read: Homo sapiens, THP-1, Table B3, hTHP-1 assay, class symbols, read-out: IC50.
Setting [7] is: Homo sapiens, THP-1, Table B1, class symbols, read-out: Average IC50 of compounds in hTHP-1 assay: hTHP-1 IC50.
Where [8] appears, read: Table B3, hTHP-1 assay, class symbols, read-out: IC50.

For `Cc1c(C(=O)O)nc2c(c1NC(=O)N=S(N)(=O)c1cnc(C(C)(C)O)s1)CCC2` (stereo not drawn) [Example 636, 4-(3-(Amino(2-(2-hydroxypropan-2-yl)thiazol-5-yl)(oxo)-l6-sulfaneylidene)ureido)-3-methyl-6,7-dihydro-5H-cyclopenta[b]pyridine-2-carboxylic acid], the pIC50 under setting [1] was less than 4.52.

`Cc1c(C2CCC2)nc2c(c1NC(=O)N=S(N)(=O)c1cnc(C(C)(C)O)s1)CCC2` (single isomer, unassigned) [Compound 649a, (R) or (S)-N′-((2-cyclobutyl-3-methyl-6,7-dihydro-5H-cyclopenta[b]pyridin-4-yl)carbamoyl)-2-(2-hydroxypropan-2-yl)thiazole-5-sulfonimidamide]: the pIC50 under setting [2] was 4.52 to 5.30.

In the case of `Cc1c(C2CC2)nc2c(c1NC(=O)N=S(N)(=O)c1cc(C(C)(C)O)cs1)CCC2` (single isomer, unassigned) [Compound 175a, (R) or (S)-N′-((2-cyclopropyl-3-methyl-6,7-dihydro-5H-cyclopenta[b]pyridin-4-yl)carbamoyl)-4-(2-hydroxypropan-2-yl)thiophene-2-sulfonimidamide], the pIC50 under setting [3] was 4.52 to 5.30.

Turning to `CC(C)c1ncc(F)c(C(C)C)c1NC(=O)N=S(N)(=O)c1cnc(C(C)(C)O)s1` (single isomer, unassigned) [Compound 164b, (S) or (R)-N′-((5-fluoro-2,4-diisopropylpyridin-3-yl)carbamoyl)-2-(2-hydroxypropan-2-yl)thiazole-5-sulfonimidamide], the pIC50 under setting [3] was 4.52 to 5.30.

With `Cc1c(C2(C)CC2)nc2c(c1NC(=O)N=S(N)(=O)c1cc(C(C)(C)O)cs1)CCC2` (single isomer, unassigned) [Compound 669a, (S) or (R)-4-(2-Hydroxypropan-2-yl)-N′-((3-methyl-2-(1-methylcyclopropyl)-6,7-dihydro-5H-cyclopenta[b]pyridin-4-yl)carbamoyl) thiophene-2-sulfonimidamide], the pIC50 under setting [4] was less than 4.52. For the compound `C[C@@H]1CCc2c1nc1c(c2NC(=O)N=S(N)(=O)c2ccn(C(C)(F)F)n2)CCC1` (single isomer, unassigned) [Compound 723b, (R) or (S)-1-(1,1-Difluoroethyl)-N′-(((R)-3-methyl-1,2,3,5,6,7-hexahydrodicyclopenta [b,e]pyridin-8-yl)carbamoyl)-1H-pyrazole-3-sulfonimidamide], the negative-log IC50 (pIC50) under setting [5] was 6.70 to 7.40. Turning to `CC(C)(O)c1ncc([S@](N)(=O)=NC(=O)Nc2c3c(nc(C(F)(F)F)c2C2CC2)CCC3)s1` [Example 577, (R)—N′-((3-cyclopropyl-2-(trifluoromethyl)-6,7-dihydro-5H-cyclopenta[b]pyridin-4-yl)carbamoyl)-2-(2-hydroxypropan-2-yl)thiazole-5-sulfonimidamide], the negative logarithm of the IC50 (pIC50) under setting [6] was 5.30 to 6.00. On to `CC(C)n1ccc(S(N)(=O)=NC(=O)Nc2c3c(nc4c2CCC4(C)C)CCC3)n1` (stereo not drawn) [Compound 126, N′-((3,3-dimethyl-1,2,3,5,6,7-hexahydrodicyclopenta[b,e]pyridin-8-yl)carbamoyl)-1-isopropyl-1H-pyrazole-3-sulfonimidamide], for which, under setting [7], the pIC50 was 6.70 to 7.40. Consider `CC1(C)CCc2c1nc1c(c2NC(=O)N=S(N)(=O)c2cc([C@](C)(O)CO)cs2)CCC1` (stereo partly drawn) [Example 623, 4-((S)-1,2-dihydroxypropan-2-yl)-N′-((3,3-dimethyl-1,2,3,5,6,7-hexahydrodicyclopenta[b,e]pyridin-8-yl)carbamoyl)thiophene-2-sulfonimidamide], for which the pIC50 under setting [6] is 6.00 to 6.70.

In the case of `C[C@@H]1CCc2c1nc1c(c2NC(=O)N=S(N)(=O)c2nn(-c3ccccc3)cc2F)CCC1` (single isomer, unassigned) [Example 792, (S) or (R)-4-fluoro-N′-(((R)-3-methyl-1,2,3,5,6,7-hexahydrodicyclopenta[b,e]pyridm-8-yl)carbamoyl)-1-phenyl-1H-pyrazole-3-sulfonimidamide], the pIC50 (Homo sapiens, THP-1, Table B4, numeric bounds, read-out: hTHP-1 IC50) was less than 4.52. Take `CCn1cc(F)c(S(N)(=O)=NC(=O)Nc2c3c(nc4c2CCC4(C)C)CCC3)n1` (single isomer, unassigned) [Example 715, (R) or (S)-N′-((3,3-dimethyl-1,2,3,5,6,7-hexahydrodicyclopenta[b,e]pyridin-8-yl)carbamoyl)-1-ethyl-4-fluoro-1H-pyrazole-3-sulfonimidamide]: the pIC50 under setting [8] was more than 8.10. In the case of `CC(C)(O)c1csc(S(N)(=O)=NC(=O)Nc2c3c(nc4c2CCC4(C)C)CCC3)c1` (single isomer, unassigned) [Compound 127b, (R) or (S)-N′-((3,3-dimethyl-1,2,3,5,6,7-hexahydro-dicyclopenta[b,e]pyridin-8-yl)carbamoyl)-4-(2-hydroxypropan-2-yl)thio-phene-2-sulfonimidamide], the pIC50 under setting [3] was 6.70 to 7.40. Regarding `CC(C)(O)c1cc(F)c(S(N)(=O)=NC(=O)Nc2cc(CC(F)(F)F)nc3c2CCC3)s1` (single isomer, unassigned) [Example 689, (R) or (S)-3-Fluoro-5-(2-hydroxypropan-2-yl)-N′-((2-(2,2,2-trifluoroethyl)-6,7-dihydro-5H-cyclopenta[b]pyridin-4-yl)carbamoyl)thiophene-2-sulfonimidamide], under setting [6], the pIC50 is 5.30 to 6.00. Take `CCc1c(C(F)(F)F)nc2c(c1NC(=O)N=S(N)(=O)c1cnc(C(C)(C)O)s1)CCC2` (single isomer, unassigned) [Compound 610b, (S) or (R)-N′-((3-ethyl-2-(trifluoromethyl)-6,7-dihydro-5H-cyclopenta[b]pyridin-4-yl)carbamoyl)-2-(2-hydroxypropan-2-yl)thiazole-5-sulfonimidamide]: under setting [5], the pIC50 is 4.52 to 5.30. Take `Cc1c(C2(F)CC2)nc2c(c1NC(=O)N=S(N)(=O)c1cc(C(C)(C)O)cs1)CCC2` (single isomer, unassigned) [Example 684, (S) or (R)-N′-((2-(1-fluorocyclopropyl)-3-methyl-6,7-dihydro-5H-cyclopenta[b]pyridin-4-yl)carbamoyl)-4-(2-hydroxypropan-2-yl)thiophene-2-sulfonimidamide]: under setting [1], the pIC50 is less than 4.52.

On to `CCc1c(C(F)(F)F)nc2c(c1NC(=O)N=S(N)(=O)c1cc(C(C)(C)O)cs1)CCC2` (single isomer, unassigned) [Compound 698a, (S) or (R)-N′-((3-ethyl-2-(trifluoromethyl)-6,7-dihydro-5H-cyclopenta[b]pyridin-4-yl)carbamoyl)-4-(2-hydroxypropan-2-yl)thiophene-2-sulfonimidamide], for which, under setting [5], the pIC50 was 5.30 to 6.00. On to `CCC1CCc2c1nc1c(c2NC(=O)N=S(N)(=O)c2cnc(C(C)(C)O)s2)CCC1` (single isomer, unassigned) [Compound 662b, (S, R) or (S, S) or (R, S) or (R, R)-N′-((3-Ethyl-1,2,3,5,6,7-hexaliydrodicyclopenta [b,e]pyridin-8-yl)caibamoyl)-2-(2-hydroxypropan-2-yl)thiazole-5-sulfonimidamide], for which, under setting [4], the pIC50 is less than 4.52. As for `Cc1c(C2CC2)nc2c(c1NC(=O)N=S(N)(=O)c1sc(C(C)(C)O)nc1CO)CCC2` (stereo not drawn) [Compound 679, N′-((2-cyclopropyl-3-methyl-6,7-dihydro-5H-cyclopenta[b]pyridin-4-yl)carbamoyl)-4-(hydroxymethyl)-2-(2-hydroxypropan-2-yl)thiazole-5-sulfonimidamide], the pIC50 under setting [2] is 4.52 to 5.30.

Take `CC1CCc2c1nc1c(c2NC(=O)N=S(N)(=O)c2ccc(CN(C)C)cc2)CCC1` (stereo not drawn) [Compound 134, 4-((dimethylamino)methyl)-N′-((3-methyl-1,2,3,5,6,7-hexahydrodicyclopenta[b,e]pyridin-8-yl)carbamoyl)benzenesulfon-imidamide]: the pIC50 under setting [3] is 5.30 to 6.00. Turning to `CC(O)c1csc([S@@](N)(=O)=NC(=O)Nc2c3c(nc4c2CC[C@H]4C)CCC3)c1` (stereo partly drawn) [compound 583, (S)-4-(1-hydroxyethyl)-N′-(((R)-3-methyl-1,2,3,5,6,7-hexahydrodicyclopenta[b,e]pyridin-8-yl)carbamoyl)thiophene-2-sulfonimidamide], the pIC50 under setting [6] was 5.30 to 6.00.

In the case of `CC(C)c1cncc(C(C)C)c1NC(=O)N=S(N)(=O)c1cnc(C(C)(C)O)s1` (stereo not drawn) [Compound 160, N′-((3,5-diisopropylpyridin-4-yl)carbamoyl)-2-(2-hydroxypropan-2-yl)thiazole-5-sulfonimidamide], the pIC50 under setting [7] is 4.52 to 5.30.

Take `Cc1c(C(C)(C)C)nc2c(c1NC(=O)N=S(N)(=O)c1cc(C(C)(C)O)cs1)CCC2` (single isomer, unassigned) [Compound 657a, (S) or (R)-N′-((2-(tert-butyl)-3-methyl-6,7-dihydro-5H-cyclopenta[b]pyridin-4-yl)carbamoyl)-4-(2-hydroxypropan-2-yl)thiophene-2-sulfonimidamide]: the pIC50 under setting [4] was less than 4.52. Turning to `NS(=O)(=NC(=O)Nc1c2c(nc(C3CC3)c1C1CC1)CCC2)c1nn(C(F)F)cc1F` (stereo not drawn) [Example 737, N′-((2,3-dicyclopropyl-6,7-dihydro-5H-cyclopenta[b]pyridin-4-yl)carbamoyl)-1-(difluoromethyl)-4-fluoro-1H-pyrazole-3-sulfonimidamide], the pIC50 (Homo sapiens, THP-1, Table B4, class symbols, read-out: hTHP-1 IC50) is 6.00 to 6.70. For the compound `CCn1cc(F)c(S(N)(=O)=NC(=O)Nc2c3c(nc(C4CC4)c2C2CC2)CCC3)n1` (single isomer, unassigned) [Example 707, (R) or (S)-N′-((2,3-dicyclopropyl-6,7-dihydro-5H-cyclopenta[b]pyridin-4-yl)carbamoyl)-1-ethyl-4-fluoro-1H-pyrazole-3-sulfonimidamide], the pIC50 under setting [8] was 7.40 to 8.10.
